Data on eleven molecules can be found in PubChem BioAssay (NCI).

What all share (experiment): NCI-60 cell line screen, 48 h
Assay [1] concerns K-562 leukemia.
Assay [2] has as its system SN12C renal.
The test system of assay [3] is NCI/ADR-RES ovarian.
Assay [4] deals with LOX IMVI melanoma.
The subject of assay [5] is HCT-15 colon.
In assay [6] the test system is MOLT-4 leukemia.
For assay [7], the system named is SK-MEL-2 melanoma.
The subject of assay [8] is RPMI-8226 leukemia.
For assay [9], the system named is HCC-2998 colon.
Assay [10] concerns CCRF-CEM leukemia.

“And” between values parts separate entries of the source, which are not always exact repeats. Equal entries are not always repeated.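 Cultured in 96-well plates, cells were exposed to test compound for 48 hours across five concentrations. At the GI50, growth is halved. TGI: concentration producing complete growth inhibition.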

Regarding `CCCCCCCCCCCCCCCCCCOc1ccccc1CC(=O)OCC[N+]1(C)CCCC1`, the GI50 was 2.81 µM in [1]; 1.94 µM in assay [2]; 15.1 µM in [3]; 1.8 µM in [4]; 4.1 µM in assay [5]; 2.12 µM in [6]. Also, the TGI in [1] was 10.5 µM; in assay [2], 4.27 µM; in [3], 42.4 µM; in assay [4], 3.36 µM; in assay [5] it was 21 µM; in [6] it was 4.95 µM.
With `CN(C)CCN1C(=O)c2ccc3c4c(ccc(c24)C1=O)C(=O)N(CCN=C=S)C3=O`, the GI50 in assay [2] is 0.0364 µM; in assay [7], 0.0563 µM; in assay [3], 0.0524 µM; in assay [4], 0.0352 µM; in assay [8], 0.0318 µM; in assay [9] it was 0.172 µM. In addition, in assay [5], the GI50 is 0.0579 µM. Moreover, the TGI in assay [2] was determined as 0.177 µM; in assay [7] it was 0.225 µM; in [3], 0.495 µM; in [4] it was 0.127 µM; in assay [8], 0.197 µM; in assay [9], 0.381 µM. In assay [5], this molecule came in with a TGI of 0.221 µM.
`O=c1cccc(C#CC#CC2=CCCCC2)o1`: the GI50 in assay [1] is 3.26 µM; in assay [2], 0.516 µM; in [7], 10.3 µM; in assay [3], 6.99 µM; in assay [10], 0.649 µM; in assay [4] it was 3.09 µM. For the same molecule, the GI50 was 2.19 µM in assay [8], 2.76 µM in assay [5] and 0.309 µM in assay [6]. For the same molecule, the TGI in [1] was above 41.8 µM; in assay [2], 1.48 µM; in assay [7], above 49 µM; in assay [3], 20.4 µM; in assay [10], 5.5 µM; in assay [8], 5.83 µM. Also, the TGI in assay [5] was 10.9 µM; in assay [6], above 33 µM.
As for `COc1cc(/C=C/c2cc(/C=C/c3ccc(O)c(OC)c3)n(C(=O)Nc3ccc(C)cc3C)n2)ccc1O`, the GI50 in assay [1] is 0.292 µM; in [3], 0.335 µM; in assay [10], 0.232 µM; in assay [8], 0.352 µM; in [9], 0.738 µM; in assay [6], 0.281 µM. The TGI in assay [1] is 1.17 µM; in assay [3], 2.66 µM; in [10] it was above 100 µM; in assay [8], 1.74 µM; in assay [9], 4.26 µM; in assay [6], 1.22 µM.
For the molecule `Nc1ccc2cc3ccc(N)cc3nc2c1`, the GI50 in [2] was 1.18 µM; in assay [3] it was 1.21 µM; in assay [10], 1.92 µM; in assay [5], 1.95 µM [middle of 4 runs]. For the same molecule, the TGI in assay [3] was 5.25 µM and 5.26 µM and 11.2 µM; in assay [4], 7.71 µM and 3.58 µM and 3.09 µM; in assay [8], 4.77 µM and 5.01 µM and 6.42 µM; in [9], 4.87 µM and 2.56 µM and 2.47 µM.
As for `COc1cccc2c(=O)c3c(sc12)c(N1CCNCC1)nc1ccccc13`, the GI50 in [2] was 1.54 µM; in [7], 1.94 µM; in [3] it was 1.75 µM; in assay [4], 1.56 µM; in [8] it was 2.39 µM; in assay [9], 1.7 µM. Moreover, the GI50 in assay [5] was 1.53 µM. For the same molecule, the TGI in assay [2] was 3.06 µM; in assay [7] it was 3.88 µM; in assay [3] it was 3.45 µM; in assay [4], 3.01 µM; in assay [8], 5.8 µM; in assay [9], 3.26 µM. In addition, the TGI in [5] was 3.09 µM.
`CN(C)c1cc[c]([Sn]([c]2ccc(N(C)C)cc2)([c]2ccc(N(C)C)cc2)[c]2ccc(N(C)C)cc2)cc1`: the GI50 is 2.02 µM in assay [1]; above 100 µM in assay [2]; 6.83 µM in assay [7]; 1.26 µM in assay [10]; 2.89 µM in assay [4]; 1.55 µM in [8]. The GI50 in assay [9] was 4.32 µM; in assay [5] it was above 100 µM; in assay [6], 1.93 µM. The TGI in assay [1] was 7.33 µM; in assay [2], above 100 µM; in assay [7], 29.3 µM; in assay [10], 5.72 µM; in assay [8] it was 4.76 µM; in assay [9] it was 18.9 µM. The results for the TGI in [5] and in [6] were above 100 µM and 6.22 µM, respectively.
Turning to `O=C1[C@@H]2C(c3ccccc3F)=NO[C@@H]2C(=O)N1c1ccc(Cc2ccc(N3C(=O)[C@H]4C(c5ccccc5F)=NO[C@H]4C3=O)cc2)cc1`, the TGI was above 100 µM in [1]; above 100 µM in [2]; above 100 µM in [7]; above 70.8 µM in assay [10]; above 100 µM in assay [4]; above 83.3 µM in assay [8]. Further, the TGI in [9] is above 100 µM; in [5], above 100 µM; in assay [6] it was above 64.4 µM.
For `CCn1c(-c2ccc(OC(C)=O)cc2)c(C)c2cc(OC(C)=O)ccc21`, the TGI is 55.3 µM in assay [1]; 79 µM in assay [2]; 37.2 µM in assay [7]; above 100 µM in assay [3]; 53.9 µM in assay [10]; 30.6 µM in [4]. Also, the TGI is 42.6 µM in assay [8], above 100 µM in assay [5] and 34 µM in assay [6].
With `O=C(/C=C\c1ccc(NCc2ccc(C(=O)O)cc2)cc1)CCl`, the GI50 in assay [1] was 3.36 µM; in assay [2], 11.2 µM; in [7], 15 µM; in assay [3], 17.8 µM; in assay [10], 2.62 µM; in assay [4], 2.17 µM. For the same molecule, the GI50 in [8] is 9.07 µM; in [5], 3.35 µM; in assay [6] it was 4.45 µM. Moreover, the TGI in assay [1] turned out to be 14 µM; in [2], 23.7 µM; in assay [7] it was 30.5 µM; in assay [3] it was 39.6 µM; in assay [10] it was 7.03 µM; in assay [4], 5.12 µM. For the same molecule, the values for the TGI in assay [8], in assay [5] and in [6] were 35.3 µM, 12.7 µM and 26.4 µM, respectively.
Turning to `CC1=CC(C/C(C)=C/COc2ccc3ccc(=O)oc3c2)OC1=O` (stereo not drawn), the TGI in assay [1], in assay [2], in [3], in assay [10], in assay [4] and in assay [9] was above 100 µM throughout. In addition, the TGI in assay [5] and in assay [6] was above 100 µM each time.
